Entries after “also recorded” stand apart in the source; their conditions may differ. Where two headings read alike, the source gives them in different places.
Tests used:
DBP KO NST mice = experiment: Locomotor pattern testing (open field video tracking) after acute methamphetamine, non-stressed mice; assay type: in vivo; settings: methamphetamine 10 mg/kg intra-peritoneal
Protocol: Drugs: Mice were administered saline, valproate (200 mg/kg), or methamphetamine (10 mg/kg) acutely by intra-peritoneal injection.
Locomotor Pattern Testing: A SMART II Video Tracker (VT) system (San Diego Instruments, San Diego, Calif.) was used to track movement of mice immediately after drug administration and again 24 hours later. After injection, mice were placed in the lower-right-hand corner of one of four adjacent, 41×41×34-cm^3 enclosures. Mice had no physical contact with other mice during testing. Each enclosure has nine pre-defined areas, i.e. center area, corner area, and wall area. The movements of the mice were recorded for 30 minutes.
Measures of overall locomotor activity were obtained and represented by the total distance traveled within and between each of the nine regions of the enclosure. Two categories of behavior were obtained. First, the amount of locomotor activity was assessed by using the total distance traveled in the open field in a 30-minute interval. Second, the spatial scaling exponent, d, or spatial D, was obtained. Spatial D is a quantified measure of the geometric patterns of locomotor activity. Briefly, spatial d is a measure of the non-linear nature of an animal's locomotor movement and is quantified on a scale from 1 to 2; with d=1 indicating extremely linear movement and d=2 representing highly non-linear locomotor movement.
Data and Statistical Analysis: Two-way analyses of variance (ANOVAs) were used to compare total distance traveled and spatial d. Genotype and/or drug treatment were between-subjects variables, and time was a within-subjects variable. All computations were conducted with SPSS statistical software (SPSS Inc., Chicago, Ill.).
Non-Stress (NST) vs. Stress (ST) Experiments: For the Non-Stress (NST) experiments, mice were group housed. For the Stress (ST) experiments, mice were subjected to a chronic stress paradigm consisting of isolation (single housing) for one month, with an acute stressor (behavioral challenge tests) in Week 3. […] At four weeks, mice were injected with either saline or methamphetamine.

[1] = test system: brain gene expression (PFC, AMY, CP, VT); design: key: I—Increased in expression; D—decreased in expression; settings: cited from earlier work
DBP KO mice = experiment: Sleep deprivation experiments with valproate pre-treatment, locomotor activity by video tracking; assay type: in vivo
Protocol: To further characterize the behavioral phenotype of the DBP KO mice, group-housed (NST) male DBP KO mice were subjected to sleep deprivation for a 24 hour period. Following sleep deprivation, sleep-deprived (SD) mice and control non sleep-deprived (NSD) mice were monitored with video-tracking software. […] In a second sleep deprivation experiment, mice were pre-treated with an IP valproate injection (200 mg/kg) immediately prior to the sleep deprivation experiment. If the change in locomotor behavior that accompanies sleep-deprivation in the SD animals is representative of an endophenotype that is associated with bipolar disorder, then administration of the mood stabilizing agent valproate should counteract the behavioral response of DBP KO mice to sleep deprivation. […] Sleep Deprivation Experiments: Sleep deprivation studies consisted of light cycle changes, with no handling of animals involved, to avoid inducing non-sleep related handling stress confounds. Male DBP KO mice were used in the sleep deprivation experiments as follows: sleep deprived (SD) animals were removed from the standard housing room with a 12 hour off/12 hour on (reverse) light cycle and kept in a dark room overnight the night before the experiment. Non-sleep deprived (NSD) animals were kept in the housing room with the standard light cycle the night before the experiment to allow for a normal night's sleep. […]

SMILES: CN[C@@H](C)Cc1ccccc1 [methamphetamine]
- stereotypy, as measured by Spatial Deviance (DBP KO NST mice; DBP KO NST mice): reduction in stereotypy
- Total Distance Traveled (DBP KO NST mice; DBP KO NST mice, 30 minutes open field): reversed this decrease
- stereotypy, as measured by Spatial Deviance (DBP KO NST mice; WT mice): trend towards an increase in stereotypy
- Cdk5r1 expression, Bipolar CFG (Ogden et al. 2004) ([1]; AMY, Cat II): AMY Cat II-Meth(D) VPA(D)
- Ckmt1 expression, Bipolar CFG (Ogden et al. 2004) ([1]; AMY, Cat III): AMY Cat III-Meth(I) VPA(I)
- Sec24d expression, Bipolar CFG (Ogden et al. 2004) ([1]; AMY, Cat III): AMY Cat III-Meth(I)
- Gas5 expression, Bipolar CFG (Ogden et al. 2004) ([1]; AMY, Cat IV): AMY Cat IV-Meth(I)
- Gnb1 expression, Bipolar CFG (Ogden et al. 2004) ([1]; AMY, Cat IV): AMY Cat IV-Meth (I)
- Mef2a expression, Bipolar CFG (Ogden et al. 2004) ([1]; AMY, Cat IV): AMY Cat IV-Meth (D)
- Ttr expression, Bipolar CFG (Ogden et al. 2004) ([1]; CP, Cat IV): CP Cat IV-Meth(I)
- Gpr88 expression, Bipolar CFG (Ogden et al. 2004) ([1]; PFC, Cat I): PFC Cat I-Meth(I) VPA (I)
- Mef2c expression, Bipolar CFG (Ogden et al. 2004) ([1]; PFC, Cat I): D
- Penk1 expression, Bipolar CFG (Ogden et al. 2004) ([1]; PFC, Cat I): PFC Cat I-Meth(I) VPA(I)
- Ppp1r1b/Darp32 expression, Bipolar CFG (Ogden et al. 2004) ([1]; PFC, Cat I): PFC Cat I-Meth(I) VPA(I)
- Tac1 expression, Bipolar CFG (Ogden et al. 2004) ([1]; PFC, Cat I): PFC Cat I-Meth(I) VPA(I)
- Alcam expression, Bipolar CFG (Ogden et al. 2004) ([1]; PFC, Cat III): PFC Cat III-Meth(D)
- Ddx6 expression, Bipolar CFG (Ogden et al. 2004) ([1]; PFC, Cat III): PFC Cat III-Meth (D)
- Gng7 expression, Bipolar CFG (Ogden et al. 2004) ([1]; PFC, Cat III): PFC Cat III-Meth(I) VPA(I)
- Scn4b expression, Bipolar CFG (Ogden et al. 2004) ([1]; PFC, Cat III): PFC Cat III-Meth(I) VPA(I)
- Actb expression, Bipolar CFG (Ogden et al. 2004) ([1]; PFC, Cat IV): PFC Cat IV-Meth (D)
- Arhgap5 expression, Bipolar CFG (Ogden et al. 2004) ([1]; PFC, Cat IV): PFC Cat IV-Meth (I)
- Gabra4 expression, Bipolar CFG (Ogden et al. 2004) ([1]; PFC, Cat IV): PFC Cat IV-METH (I)
- Gsk3b expression, Bipolar CFG (Ogden et al. 2004) ([1]; PFC, Cat IV): PFC Cat IV-METH (D)
- Hectd1 expression, Bipolar CFG (Ogden et al. 2004) ([1]; PFC, Cat IV): PFC Cat IV-Meth(D)
- Peg3 expression, Bipolar CFG (Ogden et al. 2004) ([1]; PFC, Cat IV): PFC Cat IV-Meth(D)
- Pten expression, Bipolar CFG (Ogden et al. 2004) ([1]; PFC, Cat IV): PFC Cat IV-Meth(D)
- Tmod2 expression, Bipolar CFG (Ogden et al. 2004) ([1]; PFC, Cat IV): PFC Cat IV-METH (D)
- Alcam expression, Bipolar CFG (Ogden et al. 2004) ([1]; VT, Cat IV): VT Cat IV-Meth(D)
- Ddx6 expression, Bipolar CFG (Ogden et al. 2004) ([1]; VT, Cat IV): VT Cat IV-Meth (D)

SMILES: CCCC(CCC)C(=O)O [valproate, valproic acid]
- Cdk5r1 expression, Bipolar CFG (Ogden et al. 2004) ([1]; AMY, Cat II): AMY Cat II-Meth(D) VPA(D)
- Cacnb2 expression, Bipolar CFG (Ogden et al. 2004) ([1]; AMY, Cat III): AMY Cat III-VPA(D)
- Ckmt1 expression, Bipolar CFG (Ogden et al. 2004) ([1]; AMY, Cat III): AMY Cat III-Meth(I) VPA(I)
- Ids expression, Bipolar CFG (Ogden et al. 2004) ([1]; AMY, Cat III): AMY Cat III-VPA(D)
- Mef2c expression, Bipolar CFG (Ogden et al. 2004) ([1]; AMY, Cat III): AMY Cat III-VPA(D)
- Ptov1 expression, Bipolar CFG (Ogden et al. 2004) ([1]; AMY, Cat III): AMY Cat III-VPA(I)
- Actb expression, Bipolar CFG (Ogden et al. 2004) ([1]; AMY, Cat IV): AMY Cat IV-VPA (I)
- Alcam expression, Bipolar CFG (Ogden et al. 2004) ([1]; AMY, Cat IV): AMY Cat IV-VPA(D)
- Atp8a1 expression, Bipolar CFG (Ogden et al. 2004) ([1]; AMY, Cat IV): AMY Cat IV-VPA(D)
- Clasp2 expression, Bipolar CFG (Ogden et al. 2004) ([1]; AMY, Cat IV): AMY Cat IV-VPA(D)
- Peg3 expression, Bipolar CFG (Ogden et al. 2004) ([1]; AMY, Cat IV): AMY Cat IV-VPA(D)
- Ptpn5/Step expression, Bipolar CFG (Ogden et al. 2004) ([1]; AMY, Cat IV): AMY Cat IV-VPA (I)
- Sez6 expression, Bipolar CFG (Ogden et al. 2004) ([1]; AMY, Cat IV): AMY Cat IV-VPA(I)
- Timp2 expression, Bipolar CFG (Ogden et al. 2004) ([1]; AMY, Cat IV): AMY Cat IV-VPA (D)
- Cdk5r1 expression, Bipolar CFG (Ogden et al. 2004) ([1]; CP, Cat III): CP Cat III-VPA(I)
- Alcam expression, Bipolar CFG (Ogden et al. 2004) ([1]; CP, Cat IV): CP Cat IV-VPA(D)
- Cacnb2 expression, Bipolar CFG (Ogden et al. 2004) ([1]; CP, Cat IV): CP Cat IV-VPA(I)
- Gnb1 expression, Bipolar CFG (Ogden et al. 2004) ([1]; CP, Cat IV): CP Cat IV-VPA (D)
- Ids expression, Bipolar CFG (Ogden et al. 2004) ([1]; CP, Cat IV): CP Cat IV-VPA(I)
- Mef2a expression, Bipolar CFG (Ogden et al. 2004) ([1]; CP, Cat IV): CP Cat IV-VPA (I)
- Gsk3b expression, Bipolar CFG (Ogden et al. 2004) ([1]; CP, IV): CP IV-VPA (D)
- Gpr88 expression, Bipolar CFG (Ogden et al. 2004) ([1]; PFC, Cat I): PFC Cat I-Meth(I) VPA (I)
- Mef2c expression, Bipolar CFG (Ogden et al. 2004) ([1]; PFC, Cat I): I
- Penk1 expression, Bipolar CFG (Ogden et al. 2004) ([1]; PFC, Cat I): PFC Cat I-Meth(I) VPA(I)
- Ppp1r1b/Darp32 expression, Bipolar CFG (Ogden et al. 2004) ([1]; PFC, Cat I): PFC Cat I-Meth(I) VPA(I)
- Tac1 expression, Bipolar CFG (Ogden et al. 2004) ([1]; PFC, Cat I): PFC Cat I-Meth(I) VPA(I)
- Gng7 expression, Bipolar CFG (Ogden et al. 2004) ([1]; PFC, Cat III): PFC Cat III-Meth(I) VPA(I)
- Scn4b expression, Bipolar CFG (Ogden et al. 2004) ([1]; PFC, Cat III): PFC Cat III-Meth(I) VPA(I)
- locomotion in NSD animals (DBP KO mice; NSD DBP KO mice, valproate 200 mg/kg vs non-valproate treated): did not have any significant effect on locomotion
- total distance traveled, sleep-deprived (SD) vs non sleep-deprived (NSD) (DBP KO mice; male DBP KO mice, IP valproate 200 mg/kg prior to 24 hour sleep deprivation): increase in locomotion is prevented; also recorded: no significant difference in the locomotor behavior of SD and NSD animals
